Laboratory results reported in patent publication US20250019385A1, “SPIROCYCLIC ANNULATED 2-AMINO-3-CYANO THIOPHENES AND DERIVATIVES FOR THE TREATMENT OF CANCER” (Boehringer Ingelheim International GmbH, priority 2023, published 2025).

Assays:
[1] = target: KRAS (G12C)::SOS1 protein-protein interaction (Homo sapiens (Human), UniProt P01116, C118S/C51S/C80L/G12C); assay: KRAS::SOS1 AlphaScreen binding assay (KRAS G12C); conditions: GDP
Text: This assay can be used to examine the potency with which compounds according to the invention binding to (mutated) KRAS inhibit the protein-protein interaction between SOS1 and (mutated) KRAS e.g. KRAS G12C, KRAS G12D. […] Low IC50 values in this assay setting are indicative of strong inhibition of protein-protein interaction between SOS1 and KRAS:
These assays measure the inhibitory effect of compounds on KRAS mutant protein-protein interactions using the Alpha Screen technology by Perkin Elmer.
The following (mutant) enzyme forms of KRAS and interacting proteins are used in these assays at the given concentrations:
KRAS (G12C) 1-169, N-terminal 6His-tag for purification, cleaved off, C-terminal avi-tag, biotinylated, mutations: C51S, C80L, C118S (in house); final assay concentration 7.5 nM and SOS1 564-1049, N-terminal 229 GST-tag, TEV cleavage site (Viva Biotech Ltd); final assay concentration 5 nM;
Test compounds dissolved in DMSO are dispensed onto assay plates (Proxiplate 384 PLUS, white, PerkinElmer; 6008289) using an Access Labcyte Workstation with the Labcyte Echo 55x. For the chosen highest assay concentration of 100 μM, 150 nL of compound solution are transferred from a 10 mM DMSO compound stock solution. A series of eleven fivefold dilutions per compound are transferred to the assay plate, compound dilutions are tested in duplicates. DMSO are added as backfill to a total volume of 150 nL.
The assays run on a fully automated robotic system in a darkened room below 100 Lux. To 150 nl of compound dilution 10 μl of a mix including KRAS mutant protein, SOS1 (final assay concentrations see above) and GDP nucleotide (Sigma G7127; final assay concentration 10 μM) in assay buffer (1×PBS, 0.1% BSA, 0.05% Tween 20) are added into columns 1-24.
After 30 minutes incubation time 5 μl of Alpha Screen bead mix in assay buffer are added into columns 1-23. Bead mix consists of AlphaLISA Glutathione Acceptor Beads (PerkinElmer, Cat No AL109) and AlphaScreen Streptavidin Donor Beads (PerkinElmer Cat No 6760002) in assay buffer at a final assay concentration of 10 μg/mL each.
Plates are kept at room temperature in a darkened incubator. After an additional 60 minutes incubation time the signal is measured in a PerkinElmer Envision HTS Multilabel Reader using the AlphaScreen specs from PerkinElmer.
Each plate contains up to 16 wells of a negative control depending on the dilution procedure (platewise or serial) (DMSO instead of test compound; with KRAS mutant::SOS1 GOP mix and bead mix; column 23) and 16 wells of a positive control (DMSO instead of test compound; with KRAS mutant::SOS1 GOP mix w/o bead mix; column 24).
As internal control known inhibitors of KRAS mutant::SOS1 interaction can be measured on each compound plate.
IC50 values are calculated and analyzed with Boehringer Ingelheim's MEGALAB C50 application using a 4 parametric logistic model.
Tables of example compounds disclosed herein contain IC50 values determined using the above assays (see Table 43).

[2] = Metabolic (microsomal) stability assay, human liver microsomes (HLM); format: in vitro ADME; conditions: 1 μM test compound, predicted clearance as percent of liver blood flow
Protocol: The metabolic degradation of the test compound is assayed at 37° C. with pooled liver microsomes (mouse (MLM), rat (RLM) or human (HLM)). The final incubation volume of 48 μL per time point contains TRIS buffer (pH 7.5; 0.1 M), magnesium chloride (6.5 mM), microsomal protein (0.5 mg/mL for mouse/rat, 1 mg/mL for human specimens) and the test compound at a final concentration of 1 μM. Following a short preincubation period at 37° C., the reactions are initiated by addition of 12 μL beta-nicotinamide adenine dinucleotide phosphate, reduced form (NADPH, 10 mM) and terminated by transferring an aliquot into solvent after different time points (0, 5, 15, 30, 60 min). Additionally, the NADPH-independent degradation is monitored in incubations without NADPH, terminated at the last time point by addition of acetonitrile. The quenched incubations are pelleted by centrifugation (4,000 rpm, 15 min). An aliquot of the supernatant is assayed by LC-MS/MS to quantify the concentration of parent compound in the individual samples.
In vitro intrinsic clearance (CLint,in vitro) is calculated from the time course of the disappearance of the test drug during the microsomal incubation. Each plot is fitted to the first-order elimination rate constant as C(t)=C0*exp(−ke*t), where C(t) and C0 are the concentration of unchanged test drug at incubation time t and that at preincubation and ke is the disappearance rate constant of the unchanged drug. Subsequently, CLint, in vitro (μL min^−1·amount protein) values are converted to predicted CLint,in vivo (mL min^−1·kg^−1) from incubation parameters according to the equation CLint, in vivo=CLint, in vitro×(incubation volume (mL)/amount protein (mg))×(amount protein (mg)/g liver tissue)×(liver weight/body wt.).
For better across species comparison the predicted clearance is expressed as percent of the liver blood flow [% QH] (mL min^−1·kg^−1) in the individual species. In general, high stability (corresponding to low % QH) of the compounds across species is desired.

KRAS (G12C)::SOS1 protein-protein interaction, sequence (P01116 other isoform, or with tags, fused parts or gaps G12C/C51S/C80L/C118S): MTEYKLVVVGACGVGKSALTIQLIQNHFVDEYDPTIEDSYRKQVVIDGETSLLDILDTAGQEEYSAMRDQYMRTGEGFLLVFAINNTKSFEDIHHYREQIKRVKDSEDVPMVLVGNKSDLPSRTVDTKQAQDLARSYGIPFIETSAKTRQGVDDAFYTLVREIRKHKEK

| Structure (SMILES) | IC50 [1] | HLM QH [2] |
| --- | --- | --- |
| C[C@H](Oc1nc(-c2onc3c2CCC[C@@]32CCCc3sc(N)c(C#N)c32)nc2c1n(C)c(=O)n2[C@H]1CC2CCC1O2)[C@@H]1CCCN1C (stereo partly shown) [I-17] | 2 nM | <24% |
| C[C@H](Oc1nc(-c2onc3c2CCC[C@@]32CCCc3sc(N)c(C#N)c32)nc2c1n(C)c(=O)n2[C@@H]1CC2CCC1O2)[C@@H]1CCCN1C (stereo partly shown) [I-18] | 4 nM | 31% |
| C[C@H](Oc1nc(-c2onc3c2CCC[C@@]32CCCc3sc(N)c(C#N)c32)nc2c1n(C)c(=O)n2[C@H]1CCC[C@@H]1O)[C@@H]1CCCN1C [I-19] | 2 nM | <24% |
| C[C@H](Oc1nc(-c2onc3c2CCC[C@@]32CCCc3sc(N)c(C#N)c32)nc2c1n(C)c(=O)n2[C@@H]1CCOC1)[C@@H]1CCCN1C [I-20] | 1 nM | 26% |
| CCn1c(=O)n([C@@H]2CCOC2)c2nc(-c3onc4c3CCC[C@@]43CCCc4sc(N)c(C#N)c43)nc(O[C@@H](C)[C@@H]3CCCN3C)c21 [I-21] | 1 nM | 45% |
| C[C@H](Oc1nc(-c2onc3c2CCC[C@@]32CCCc3sc(N)c(C#N)c32)nc2c1n(C)c(=O)n2[C@@H]1CCOC1)[C@@H]1C[C@@H](F)CN1C [I-22] | 1 nM | 56% |
| CO[C@H]1CCN(C)[C@@H]1[C@H](C)Oc1nc(-c2onc3c2CCC[C@@]32CCCc3sc(N)c(C#N)c32)nc2c1n(C)c(=O)n2[C@@H]1CCOC1 [I-23] | 1 nM | 77% |
| C[C@H](Oc1nc(-c2onc3c2CCC[C@@]32CCCc3sc(N)c(C#N)c32)nc2c1n(C)c(=O)n2C1COC1)[C@@H]1CCCN1C [I-24] | 2 nM | <24% |
| C[C@H](Oc1nc(-c2onc3c2CCC[C@@]32CCCc3sc(N)c(C#N)c32)nc2c1n(C)c(=O)n2[C@@H]1CCOC1)C12CCCN1CCC2 [I-25] | 2 nM | 33% |
| C[C@H](Oc1nc(-c2onc3c2CCC[C@@]32CCCc3sc(N)c(C#N)c32)nc2c1n(C)c(=O)n2[C@@H]1CCOC1)[C@@H]1CC[C@H](C)N1C [I-26] | 2 nM | 42% |
| C[C@H](Oc1nc(-c2onc3c2CCC[C@@]32CCCc3sc(N)c(C#N)c32)nc2c1n(C)c(=O)n2[C@@H]1CCOC1)[C@@H]1C[C@H](F)CN1C [I-27] | 2 nM | 58% |
| C[C@H](Oc1nc(-c2onc3c2CCC[C@@]32CCCc3sc(N)c(C#N)c32)nc2c1n(C)c(=O)n2[C@@H]1CCOC1)[C@@H]1C[C@@H]2C[C@@H]2N1C [I-28] | 2 nM | 52% |
| C[C@H](Oc1nc(-c2onc3c2CCC[C@@]32CCCc3sc(N)c(C#N)c32)nc2c1n(C)c(=O)n2[C@@]12COC[C@@H]1C2)[C@@H]1CCCN1C [I-29] | 1 nM | <24% |
| CCn1c(=O)n([C@@H]2CCCOC2)c2nc(-c3onc4c3CCC[C@@]43CCCc4sc(N)c(C#N)c43)nc(O[C@@H](C)[C@@H]3CCCN3C)c21 [I-30] | 2 nM | 25% |
| CO[C@H]1C[C@@H](n2c(=O)n(C)c3c(O[C@@H](C)[C@@H]4CCCN4C)nc(-c4onc5c4CCC[C@@]54CCCc5sc(N)c(C#N)c54)nc32)C1 [I-31] | 2 nM | <24% |
| CC(C)n1c(=O)n([C@@H]2CCOC2)c2nc(-c3onc4c3CCC[C@@]43CCCc4sc(N)c(C#N)c43)nc(O[C@@H](C)[C@@H]3CCCN3C)c21 [I-32] | 2 nM | 88% |

| Structure (SMILES) | IC50 [1] | HLM QH [2] |
| --- | --- | --- |
| CCn1c(=O)n([C@@H]2CCCOC2)c2nc(-c3onc4c3CCC[C@@]43CCCc4sc(N)c(C#N)c43)nc(OC[C@@]34CCCN3C[C@H](F)C4)c21 [I-33] | 22 nM | 48% |
| CCn1c(=O)n([C@@H]2CCCOC2)c2nc(-c3onc4c3CCC[C@@]43CCCc4sc(N)c(C#N)c43)nc(OCC34CCCN3CCC4)c21 [I-34] | 6 nM | <24% |
| CCn1c(=O)n([C@@H]2CCCOC2)c2nc(-c3onc4c3CCC[C@@]43CCCc4sc(N)c(C#N)c43)nc(OCC3(CN4CCCC4)CC3)c21 [I-35] | 2 nM | 53% |
| CCn1c(=O)n([C@@H]2CCCOC2)c2nc(-c3onc4c3CCC[C@@]43CCCc4sc(N)c(C#N)c43)nc(O[C@@H](C)C34CCCN3CCC4)c21 [I-36] | 2 nM | 37% |
| C[C@H](Oc1nc(-c2onc3c2CCC[C@@]32CCCc3sc(N)c(C#N)c32)nc2c1N(C)C(=O)CN2[C@@H]1CCOC1)[C@@H]1CCCN1C [I-37] | 7 nM | <24% |
| C[C@H](Oc1nc(-c2onc3c2CCC[C@@]32CCCc3sc(N)c(C#N)c32)nc2c1ncn2[C@@H]1CCOC1)[C@@H]1CCCN1C [I-38] | 2 nM | 28% |
| Cc1nc2c(O[C@@H](C)[C@@H]3CCCN3C)nc(-c3onc4c3CCC[C@@]43CCCc4sc(N)c(C#N)c43)nc2n1[C@@H]1CCOC1 [I-39] | 2 nM | 57% |
| Cc1cc2c(O[C@@H](C)[C@@H]3CCCN3C)nc(-c3onc4c3CCC[C@@]43CCCc4sc(N)c(C#N)c43)nc2n1[C@@H]1CCOC1 [I-40] | 2 nM | 37% |
| Cc1cn([C@@H]2CCOC2)c2nc(-c3onc4c3CCC[C@@]43CCCc4sc(N)c(C#N)c43)nc(O[C@@H](C)[C@@H]3CCCN3C)c12 [I-41] | 4 nM | <24% |
| Cc1nn([C@@H]2CCOC2)c2nc(-c3onc4c3CCC[C@@]43CCCc4sc(N)c(C#N)c43)nc(O[C@@H](C)[C@@H]3CCCN3C)c12 [I-42] | 2 nM | 36% |
| C[C@H](Oc1nc(-c2onc3c2CCC[C@@]32CCCc3sc(N)c(C#N)c32)nc2c1cnn2[C@@H]1CCOC1)[C@@H]1CCCN1C [I-43] | 2 nM | <24% |
| C[C@H](Oc1nc(-c2onc3c2CCC[C@@]32CCCc3sc(N)c(C#N)c32)nc2c1COC[C@]21CCOC1)[C@@H]1CCCN1C [I-54] | 2 nM | 31% |
| CO[C@H]1CCN(C)[C@@H]1[C@H](C)Oc1nc(-c2noc3c2CCC[C@@]32CCCc3sc(N)c(C#N)c32)nc2c1n(C)c(=O)n2[C@@H]1CCOC1 [II-1] | 1 nM | 80% |
| C[C@H](Oc1nc(-c2noc3c2CCC[C@@]32CCCc3sc(N)c(C#N)c32)nc2c1n(C)c(=O)n2[C@@H]1CCOC1)[C@@H]1CCCN1C [II-2] | 1 nM | 40% |
| CO[C@H]1CCN(C)[C@@H]1[C@H](C)Oc1nc(-c2noc3c2CCC[C@@]32CCCc3sc(N)c(C#N)c32)nc2c1n(C)c(=O)n2[C@@H]1CCCOC1 [II-3] | 2 nM | 80% |
| C[C@H](Oc1nc(-c2noc3c2CCC[C@@]32CCCc3sc(N)c(C#N)c32)nc2c1cnn2[C@@H]1CCOC1)[C@@H]1CCCN1C [II-4] | 2 nM | 40% |
